Assay: xn = mol fraction of the nth substance listed

CN1CCC[C@H]1c1cccnc1 + ClC(Cl)C(Cl)Cl
viscosity [mPa·s], 101.33 kPa
Conditions | x1 = 0.1547 | x1 = 0.2569 | x1 = 0.3706 | x1 = 0.5146 | x1 = 0.5995 | x1 = 0.6384 | x1 = 0.6803 | x1 = 0.7501 | x1 = 0.868
298.15 K | 2.625 | 3.353 | 4.121 | 4.912 | 5.253 | 5.353 | 5.203 | 5.031 | 4.545
323.15 K | 1.541 | 1.905 | 2.184 | 2.425 | 2.53 | 2.632 | 2.568 | 2.497 | 2.342

CN1CCC[C@H]1c1cccnc1 + CCO
viscosity [mPa·s], 101.33 kPa
Conditions | 298.15 K | 323.15 K
x1 = 0.0501 | 1.468 | 0.8557
x1 = 0.1104 | 1.756 | 1.03
x1 = 0.1524 | 1.941 | 1.123
x1 = 0.2923 | 2.477 | 1.376
x1 = 0.3425 | 2.652 | 1.482
x1 = 0.4474 | 3.004 | 1.703
x1 = 0.4676 | 3.008 | 1.764
x1 = 0.5898 | 3.224 | 1.784
x1 = 0.6839 | 3.497 | 1.88
x1 = 0.7725 | 3.564 | 1.961
x1 = 0.8957 | 3.801 | 2.026
x1 = 0.8976 | 3.803 | 2.026

CN1CCC[C@H]1c1cccnc1 + CC(=O)O
viscosity [mPa·s], 101 kPa
Conditions | 298.15 K | 323.15 K
x1 = 0.1169 | 23.04 | 7.777
x1 = 0.1985 | 74.98 | 18.12
x1 = 0.2129 | 93.46 | 20.8
x1 = 0.2369 | 109.9 | 21.63
x1 = 0.2489 | 111.9 | 22.09
x1 = 0.2602 | 110.9 | 21.72
x1 = 0.2952 | 94.15 | 19.47
x1 = 0.3062 | 86.56 | 18.65
x1 = 0.3711 | 56.31 | 13.21
x1 = 0.47 | 24.1 | 7.709
x1 = 0.5888 | 15.2 | 5.208
x1 = 0.7306 | 8.751 | 3.61
x1 = 0.8435 | 7.072 | 3.085

CCCCCCCCCCC + CCCCCCCCCCCCCCCC
298.15 K, 101.33 kPa
Conditions | viscosity [mPa·s]
x1 = 0.1095 | 2.783
x1 = 0.2008 | 2.549
x1 = 0.3116 | 2.315
x1 = 0.4052 | 2.108
x1 = 0.5071 | 1.905
x1 = 0.6081 | 1.723
x1 = 0.7051 | 1.534
x1 = 0.806 | 1.363
x1 = 0.9031 | 1.209

CN1CCC[C@H]1c1cccnc1 + CC(C)=O
viscosity [mPa·s], 101 kPa
Conditions | x1 = 0.1173 | x1 = 0.2498 | x1 = 0.378 | x1 = 0.5005 | x1 = 0.6228 | x1 = 0.7485 | x1 = 0.8439
298.15 K | 0.4615 | 0.6975 | 0.9326 | 1.28 | 1.695 | 2.274 | 2.856
308.15 K | 0.4184 | 0.6054 | 0.7994 | 1.075 | 1.397 | 1.818 | 2.248
323.15 K | 0.3526 | 0.4988 | 0.6476 | 0.8411 | 1.065 | 1.364 | 1.619

OCCCO + OCCO
viscosity [mPa·s], 101 kPa
Conditions | x2 = 0.111 | x2 = 0.2019 | x2 = 0.359 | x2 = 0.4612 | x2 = 0.5502 | x2 = 0.6262 | x2 = 0.7342 | x2 = 0.8289 | x2 = 0.9111
298.15 K | 39.52 | 37.55 | 34.13 | 31.81 | – | – | 24.96 | 22.36 | 19.9
303.15 K | 31.57 | 29.96 | 27.17 | 25.33 | 23.65 | 22.16 | 19.81 | 17.71 | 15.79
308.15 K | 25.57 | 24.22 | 21.94 | 20.45 | 19.09 | 17.92 | 16.08 | 14.42 | 12.89

O=c1cc[nH]c(=O)[nH]1 + O
viscosity [mPa·s]
Conditions | 293.15 K | 298.15 K | 303.15 K | 308.15 K | 318.15 K
101 kPa, x1 = 9e-05 | – | 0.879 | – | 0.7172 | 0.5784
101 kPa, x1 = 0.00018 | – | 0.9132 | – | 0.7313 | 0.5871
101 kPa, x1 = 0.00027 | – | 0.9292 | – | 0.7541 | 0.6092
101 kPa, x1 = 0.00036 | – | 0.941 | – | 0.7821 | 0.6272
101.3 kPa, x1 = 0.000113 | 1.004 | – | 0.801 | – | –
101.3 kPa, x1 = 0.000164 | – | 0.892 | – | 0.721 | –
101.3 kPa, x1 = 0.000177 | 1.005 | 0.894 | 0.802 | – | –
101.3 kPa, x1 = 0.0002602 | – | 0.894 | – | – | 0.599
101.3 kPa, x1 = 0.0002747 | 1.006 | – | 0.803 | – | –
101.3 kPa, x1 = 0.0003447 | 1.007 | 0.896 | 0.804 | – | –
101.3 kPa, x1 = 0.0004315 | – | 0.896 | – | – | 0.601
101.3 kPa, x1 = 0.0004415 | – | 0.896 | – | 0.725 | 0.601
101.3 kPa, x1 = 0.0004586 | 1.008 | 0.897 | 0.805 | – | –
101.3 kPa, x1 = 0.0004739 | – | 0.897 | – | 0.725 | 0.601
101.3 kPa, x1 = 0.0005438 | 1.009 | – | 0.806 | – | –

OCCCl + Nc1cccc(Cl)c1
100 kPa
Conditions | viscosity [mPa·s]
303.15 K, x2 = 0.7938 | 3.925
308.15 K, x2 = 0.3622 | 2.855
313.15 K, x2 = 0.0844 | 1.995
313.15 K, x2 = 0.5814 | 2.795

CN1CCC[C@H]1c1cccnc1 + OCCCO
100 kPa
Conditions | viscosity [mPa·s]
293.15 K, x1 = 0.5 | 33.15
293.15 K, x1 = 0.6004 | 22.75
293.15 K, x1 = 0.8 | 9.805
298.15 K, x1 = 0.8 | 8.105
303.15 K, x1 = 0.6004 | 13.95
308.15 K, x1 = 0.7 | 7.885
313.15 K, x1 = 0.9 | 3.625
323.15 K, x1 = 0.3 | 13.05

CN1CCC[C@H]1c1cccnc1 + ClC(Cl)Cl
viscosity [mPa·s], 101.33 kPa
Conditions | 298.15 K | 308.15 K | 323.15 K
x1 = 0.1107 | 0.8162 | 0.7343 | 0.6076
x1 = 0.1213 | 0.8741 | 0.7473 | 0.6289
x1 = 0.2022 | 1.135 | 0.9654 | 0.8066
x1 = 0.219 | 1.197 | 0.9796 | 0.8071
x1 = 0.2456 | 1.275 | 1.082 | 0.8894
x1 = 0.2972 | 1.463 | 1.206 | 0.958
x1 = 0.3738 | 1.8 | 1.473 | 1.138
x1 = 0.4026 | 1.921 | 1.588 | 1.198
x1 = 0.4882 | 2.296 | 1.818 | 1.361
x1 = 0.5032 | 2.395 | 1.9 | 1.402
x1 = 0.6129 | 2.846 | 2.267 | 1.651
x1 = 0.623 | 2.964 | 2.301 | 1.663
x1 = 0.6823 | 3.103 | 2.409 | 1.756
x1 = 0.6974 | 3.196 | 2.471 | 1.768
x1 = 0.8059 | 3.563 | 2.756 | 1.912
x1 = 0.8931 | 3.704 | 2.959 | 2
x1 = 0.8962 | 3.741 | 2.974 | 2.002

Source: the CheMixHub viscosity set
